Several values for one entry are separate records, joined by “and”; a condition that tells them apart may be missing. Identical values can stand only once. Entries after “also recorded” stand apart in the source; their conditions may differ.
Assays:
[1] = tested on: Ras; parameters: method as in PMID 22431598; conditions: cited from earlier work
[2] = tested on: H-Ras; parameters: method as in PMID 27265506; conditions: cited from earlier work
[3] = target: H-Ras (Homo sapiens, UniProt P01112); assay: In vitro mant-GTP exchange assay, purified H-Ras with purified SOS1; assay type: biochemical; parameters: the cDNA of H-Ras (full length) was obtained by RT-PCR of HEK293SL; GST (N); host or cells: E. coli BL21; conditions: 50 μM
Procedure: Ras activity was assessed in a 384-well black bottom plate using the mant-GTP exchange factor assay that measures the uptake of the fluorescent nucleotide analog N-methylanthraniloyl-GTP (mant-GTP) into GTPases. For Ras activation, 2X exchange buffer, 1.66 μg of purified pGEX-6P-1-H-Ras or pGEX-6P-1-K-Ras-WT or pGEX-6P-1-K-Ras-Y32A were added per well in presence of DMSO, different concentrations of Rasarfin (as indicated) or 50 µM of compounds 21.4, 21.7, or 21.8. Using the Infinite 200 Pro plate reader (Tecan) with filters set at 360 nm and 440 nm for detecting the excitation and emissions, respectively, and temperature set at 20 °C, 5 readings were recorded every 5 s before the addition of either H2O, 40 mM EDTA or 0.66 μg purified SOS1. The fluorescence of mant-GTP uptake was measured every 30 sec for 30 min and quantified as the delta relative fluorescence units (RFU), which was calculated as the RFU post-addition minus the 5 averaged RFU pre-addition, per condition.

[4] = tested on: MDA-MB-231 cells; assay: Cell proliferation assay (IncuCyte confluence), MDA-MB-231; assay type: cell-based, human; conditions: 10 µM
Procedure: Cell proliferation was measured by a label-free, non-invasive cellular confluence assay using IncuCyte Live-Cell Imaging Systems (Essen Bioscience, Ann Arbor, MI, USA). MDA-MB-231 breast cancer and A549 lung carcinomas cells (1500 cells in 150 μl/well) were seeded overnight on a clear 96-well plate. Twenty-four hours later, the cells were treated with 0.1% DMSO, or different concentrations of Rasarfin (as indicated), or 10 µM of 21.4 or 21.8 for 96 h total. The plate was placed in an XL-3 incubation chamber maintained at 37 °C and the cells were photographed using a ×4 objective, every 3 h for 4 days. Cell confluence was calculated using IncuCyte S3 software (2019A) and cell proliferation was expressed as an increase in the percentage of confluence. Experiments were done in triplicate and repeated three times.

[5] = tested on: MDA-MB-231 cells; assay: Cell viability assay (MTT), MDA-MB-231; assay type: cell-based, human; conditions: for cell viability (MTT signal): S_Fig12f, listed as Comp 21.4
Procedure: MDA-MB-231 breast cancer cells and A549 lung carcinomas (1500 cells in 150 μl/well) were seeded overnight on a clear 96-well plate. Twenty-four hours later, the cells were treated with 0.1% DMSO, or different concentrations of Rasarfin (as indicated), or 10 µM of 21.4, 21.8 (MDA-MB-231 breast cancer cells) or Doxorubicin for the indicated times at 37 °C. At each time point, 10 μl of 5 mg/ml MTT was added to each well and the plates were incubated for an additional 4 h at 37 °C. The absorbance at 590 nm was measured by plate reader. Experiments were done in triplicate and repeated three times.

[6] = tested on: AT1R; assay: Endosomal BRET assay of AngII-mediated AT1R internalization (AT1R-RlucII / Endo-rGFP; HTS, validation, concentration-response); assay type: cell-based, human; conditions: 50 μM
From the text: We performed a HT campaign in HEK293 cells using the bystander endosomal BRET sensor, which consists of a Renilla luciferase (RlucII)-tagged AT1R and an acceptor renilla GFP (rGFP) anchored to endosomes through an Endofin-FYVE (Endo-rGFP) domain[12]. AngII-mediated trafficking of AT1R to endosomes was screened against commercial libraries of ~115,000 small molecules (Fig. 1a and Supplementary Data 1). Because our assay is based on luminescence and fluorescence, we excluded 6610 compounds that quenched more than 50% of the luciferase or GFP signals. After excluding 5 AT1R antagonists, we conserved hit compounds blocking by more than 40%, as well as those potentiating by more than 100% receptor internalization. From this collection of 943 compounds, a second validation on AT1R internalization was performed using the same BRET assay, as well as on the agonist-mediated B2R internalization, this time using B2R-RlucII and Endo-rGFP. Only compounds that were revalidated on AT1R and affected B2R endocytosis were kept, which included forty hits (20 potentiators and 20 inhibitors) (Fig. 1b and Supplementary Data 2). We focused on inhibitors that were commercially available at the beginning of the project and tested their cell toxicity by microscopy, looking at cells expressing B2R tagged with YFP, which highlights cell contours and potential morphological changes, such as rounding up of cells following treatment with 50 μM of the compounds that may have indicated cell death. None of the inhibitors tested caused abnormal cell morphological changes when cells were treated with compounds as compared to DMSO-treated cells. Inhibitors were also assessed in terms of structure novelty, derivatization potential, and commercial availability of analogs (within 95–98% similarity from Tanimoto metric, Sci-Finder, https://scifinder-n.cas.org), for structure-activity relationship studies (SAR). They were scored 1–5, from best to worst. We excluded compounds with potential nucleophilic reactivity (e.g., Michael addition: compounds 7, 26, and 27), those reported to have biological activities (compounds 8, 20, 25, 30, and 35) and/or showing autofluorescence (compound 26). Compound 19 ranked high, but only had one other molecule with a similar structure available. Although other molecules could be interesting in their own rights as endocytosis inhibitors (e.g., compounds 1, 9, 11, 12, 13, 24, 31, and 37), we focused on compound 21 (Fig. 1c) because not only did it rank high in our analysis, but it was also the only compound with substantially more similar analogs commercially available at the time of these investigations. In the screen and the follow-up validation assay, 21 inhibited more than 50% AT1R internalization and more than 65% B2R internalization (Supplementary Data 2). […] Because β-arrestins are critically involved in GPCR endocytosis and trafficking in cells, we assessed 21’s effects on β-arrestins’ recruitment to AT1R and B2R at the PM using a BRET assay, as well as their trafficking into endosomes by microscopy.
The chemical library used for initial screening was from Chembridge DiverSet™ (60,000 compounds), Maybridge HitFinder™ (16,000 compounds), Maybridge (selected, 16,000 compounds), SPECS (selected, 16000 compounds), Microsource Discovery Spectrum (2000 compounds), Biomol (natural products, 500 compounds), Prestwick (commercialized products, 1120 compounds), SIGMA LopacTM (1280 compounds) and internal collection (synthesized at Université de Montréal-IRIC, ~4000 compounds). Compounds were all assigned an Université de Montréal number (UM) for internal use. Screen was performed at IRIC HTS facility. KINOMEscan™ profiling was serviced by Eurofin/DiscoverX (San Diego, USA).
HEK293SL cells were seeded at a density of 7.5 × 10^5 cells per 100-mm dish and 24 h later, transiently transfected as such. […]

[7] = tested on: ERK1/2 activation by AT1R; assay: Western blot of AT1R-mediated ERK1/2 phosphorylation; assay type: cell-based, human; conditions: 50 μM
Procedure: HEK293SL cells (10^5 cells per well) were seeded in a poly-L-lysine-coated six-well plate and transiently transfected with 3 μg Flag-AT1R, HA-B2R or HA-β2AR and/or 500 ng Flag-MEK1-WT, Flag-MEK1-DD, Flag-BRAF-WT, Flag-BRAF-V600E, Flag-K-Ras-WT, Flag-K-Ras-G12V, HA-ARF6-WT, or HA-ARF6-T27N. Gαq/11 KO and βarr1/2 KO cells were seeded onto 100 mm dishes at a density of 10^6 cells per dish. Next day, cells were transfected with 3 μg AT1R alone or along with 500 ng of β-arrestin2 using PEI. After 18 h of transfection, cells were detached and re-seeded onto poly-L-lysine coated 12-well plates (~1.5–2 × 10^5cells/well) for subsequent experiments. Forty-eight hours post transfection, in a 37 °C water bath, cells were serum-starved for 30 min, pretreated with DMSO (0.1%) or compound 21/Rasarfin (50 µM or at indicated concentrations) for 30 min, then stimulated or not with the indicated ligand [AngII (1 µM), BK (1 µM), Iso (10 µM) or EGF (100 ng/ml)] at indicated times. Cells were put on ice, washed with PBS and solubilized in 2x laemmli buffer (250 mM Tris–HCl pH 6.8, 2% SDS (w/v), 10% glycerol (v/v), 0.01% bromophenol blue (w/v) and 5% β-mercaptoethanol (v/v)) by heating at 65 °C for 15 min. Lysates were resolved on 10 or 14% SDS-PAGE, transferred to nitrocellulose membranes and immunoblotted for p-ERK1/2, ERK1/2, p-Akt, Akt, HA, Myc, β-actin or FLAG. ImageLab 5.2 software was used to quantify the digital blots as fold of the phosphorylated protein over total protein, which were then normalized as indicated in the figure legends. Uncropped immunoblots are provided in the Source Data file.

Chain of H-Ras (Homo sapiens, UniProt P01112) (P01112 whole entry): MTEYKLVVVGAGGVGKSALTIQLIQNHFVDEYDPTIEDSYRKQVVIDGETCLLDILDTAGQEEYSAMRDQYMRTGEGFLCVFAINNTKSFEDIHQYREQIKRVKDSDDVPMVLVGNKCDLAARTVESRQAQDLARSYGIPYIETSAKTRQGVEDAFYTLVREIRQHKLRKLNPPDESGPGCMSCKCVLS

| Molecule | Ras exchange activity, mant-GTP loading into H-Ras with SOS1 (Fig. 8c) [3] | inhibition of AT1R internalization into endosomes (Fig. 8a) [6] | inhibition of AT1R-mediated ERK1/2 (MAPK) activation (Fig. 8b) [7] | further results |
| --- | --- | --- | --- | --- |
| Cc1[nH]c2cc(Cl)cc(Cl)c2c1CCN [DCAI, 4,6-dichloro-2-methyl-3-aminoethyl-indole] | – | – | – | SOS binding to Ras and nucleotide exchange [1]: blocks SOS binding to Ras but only inhibits the nucleotide exchange catalyzed by SOS |
| NAV-2729 | – | – | – | block of H-Ras [2]: inefficacious to block H-Ras |
| CC(C)C(=O)N1CCN(c2ccc(NC(=O)c3cc4ccccc4o3)cc2)CC1 [Compound 21.4] | lacks Ras and MAPK inhibitory activities; also recorded: had no effect | did not inhibit AT1R internalization | lacks Ras and MAPK inhibitory activities | MDA-MB-231 cell proliferation (confluency) [4]: only 21.8, which efficiently inhibits MAPK as well as Rasarfin, inhibited cell proliferation; metabolic activity of MDA-MB-231 cells (MTT) ([5]; 10 µM): moderately decreasing the metabolic activity of cancer cells; cell viability (MTT signal) ([5]; 24h): 0.2634 and 0.244 and 0.2; cell viability (MTT signal) ([5]; 48h): 0.339 and 0.3215 and 0.2045 |
| CCC(=O)N1CCN(c2ccc(NC(=O)c3cccs3)cc2Cl)CC1 [Compound 21.7] | had no effect | loss of compounds’ efficacy to inhibit AT1R internalization | lost their ability to inhibit MAPK | – |
